Broadly, the Ki is the dissociation constant of the complex between target and ligand, obtained from inhibition or displacement. Lower therefore signals tighter binding.

The target of assay [1] is T1, Purine nucleoside phosphorylase (Homo sapiens, UniProt P00491).
T1 sequence (P00491 whole entry): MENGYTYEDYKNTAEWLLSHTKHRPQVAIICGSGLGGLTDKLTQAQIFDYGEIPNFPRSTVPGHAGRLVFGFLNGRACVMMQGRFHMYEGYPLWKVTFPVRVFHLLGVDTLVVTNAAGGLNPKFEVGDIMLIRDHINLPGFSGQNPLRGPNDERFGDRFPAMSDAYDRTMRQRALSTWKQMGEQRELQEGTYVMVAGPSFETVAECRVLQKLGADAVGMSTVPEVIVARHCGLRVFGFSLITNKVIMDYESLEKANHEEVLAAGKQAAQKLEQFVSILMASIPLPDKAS
Description: Inhibition of human purine nucleoside phosphorylase; Initial rate.

In assay [2] the target is T1, Purine nucleoside phosphorylase. The source holds these as a separate data set.
Description: Equilibrium dissociation constant determined against human purine nucleoside phosphorylase (PNP) after slow-onset inhibition

Turning to `Cc1nc2c(O)[nH]cnc-2c1[C@@H]1N[C@H](CO)[C@H](O)C1O` (stereo partly drawn), the affinity in assay [1] corresponds to a Ki of 10.1 nM. This counts as double-digit nanomolar. On to `Nc1nc(O)c2[nH]cc([C@H]3C[C@@H](O)[C@@H](CO)N3)c2n1`, for which the Ki in assay [1] was determined as 0.22 nM. Against the preceding compound, the Ki is about 46-fold lower.

In turn, `OC[C@H]1N[C@@H](c2c[nH]c3c(O)ncnc23)C[C@H]1O` yielded a Ki in assay [1] of 0.25 nM. Same read-out and setting: under `C[C@H]1N[C@@H](c2c[nH]c3c(=O)[nH]cnc23)C(O)[C@H]1O` (stereo partly drawn) stands 25 nM. As to `Oc1ncnc2c([C@@H]3N[C@H](CF)[C@H](O)C3O)c[nH]c12` (stereo partly drawn), the Ki amounted to 7 nM in assay [2] and 81 nM in assay [1]. Compound `Nc1[nH]cnc2c(C[C@@H]3N[C@H](CO)[C@H](O)C3O)cnc1-2` (stereo partly drawn) returned a Ki in assay [1] above 30000 nM. For `OC[C@H]1N[C@@H](c2n[nH]c3c(O)ncnc23)[C@H](O)[C@@H]1O`, the inhibitory constant (Ki) in assay [2] was determined as 0.18 nM; in assay [1] it was 1.4 nM. For `COC1[C@@H](O)[C@@H](CO)N[C@H]1c1c[nH]c2c(=O)[nH]cnc12` (stereo partly drawn), the Ki in assay [1] is 5.9 nM. In other words, the single-digit nanomolar range.

Turning to `Nc1nc2c([C@@H]3N[C@H](CO)[C@@H](O)[C@H]3O)c[nH]c2c(=O)[nH]1`, the Ki in assay [2] came to 0.042 nM; in assay [1], 0.54 nM. In assay [1], `OC[C@@H]1CC(O)[C@H](c2c[nH]c3c(O)ncnc23)N1` (stereo partly drawn) yielded an inhibitory constant (Ki) of 9.5 nM. `OC[C@H]1N[C@@H](c2c[nH]c3c(O)ncnc23)C(F)(F)[C@H]1O` came in with a Ki in assay [1] of 1.4 nM. In the case of `OC[C@H]1N[C@@H](c2c(F)[nH]c3c(O)ncnc23)C(O)[C@H]1O` (stereo partly drawn), the values for the Ki in assay [2] and in assay [1] were 0.39 nM and 5.6 nM, respectively.

For the compound `CCCN1[C@H](CO)[C@H](O)C(O)[C@@H]1c1c[nH]c2c(O)ncnc12` (stereo partly drawn), in assay [1], the affinity, expressed as Ki, was 415 nM. `OC[C@H]1N[C@@H](Cc2c[nH]c3c(O)ncnc23)C(O)[C@H]1O` (stereo partly drawn) registered a Ki in assay [1] of 250 nM. Against the preceding compound, the Ki is about 1.7-fold lower. In assay [1], `Cn1cc([C@@H]2N[C@H](CO)[C@H](O)C2O)c2ncnc(O)c21` (stereo partly drawn) came in with a Ki of 4.7 nM. This Ki lies about 53-fold lower than the previous one. As for `OC[C@@H]1[C@H](O)C(O)CN1Cc1c[nH]c2c(O)ncnc12` (stereo partly drawn), the inhibition constant (Ki) in assay [1] worked out at 2.84 nM. Compound `COc1[nH]cnc2c([C@@H]3N[C@H](CO)[C@H](O)C3O)cnc1-2` (stereo partly drawn) returned a Ki in assay [1] of 4.7 nM. The same measure, in the same setting: under `OC[C@@H]1[C@H](O)C(O)CN1c1c[nH]c2c(O)ncnc12` (stereo partly drawn) stands 12700 nM; under `OC[C@H]1N[C@@H](c2c[nH]c3c(S)ncnc23)C(O)[C@H]1O` (stereo partly drawn), 24.7 nM.

(Values after ChEMBL document CHEMBL1144874, “Exploring structure-activity relationships of transition state analogues of human purine nucleoside phosphorylase” (J Med Chem, 2003).)
